Measured values from ChEMBL document CHEMBL1201862, “PubChem BioAssay data set” (2004).
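These data come from cells grown in 96-well plates and exposed to compound for 48 hours at five concentrations. Here, GI50 denotes the concentration required for 50% inhibition of growth.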 Calls of active or inactive are those of the source. No stated cut-off is given here; in the data, active = GI50 up to about 1.1 µM and inactive = higher.

Key:
Experiment in all cases: DTP human tumour cell line panel, 48 h
RXF 393 = system: RXF 393
K562 = system: K562
OVCAR-5 = system: OVCAR-5
NCI-H460 = system: NCI-H460
SNB-19 = system: SNB-19
NCI-H23 = system: NCI-H23
OVCAR-3 = system: OVCAR-3
SR = system: SR
DU-145 = system: DU-145
CCRF-CEM = system: CCRF-CEM
ACHN = system: ACHN
SW-620 = system: SW-620
OVCAR-4 = system: OVCAR-4
MCF7 = system: MCF7
CAKI-1 = system: CAKI-1
MOLT-4 = system: MOLT-4
HCC 2998 = system: HCC 2998
UO-31 = system: UO-31
HT-29 = system: HT-29

Measured: GI50

O=C(OCC(OC(=O)c1ccccc1)C1CC(C(O)C2CCCCC2)C(=O)O1)c1ccccc1 (stereo not drawn)
inactive: RXF 393 > 100 µM | K562 21.4 µM | OVCAR-5 > 100 µM | NCI-H460 25.9 µM | SNB-19 59 µM | NCI-H23 > 100 µM | OVCAR-3 35.3 µM | SR 20.1 µM | DU-145 > 100 µM | CCRF-CEM 22.5 µM | ACHN > 100 µM | SW-620 42.3 µM | OVCAR-4 32.7 µM | MCF7 31.7 µM | CAKI-1 > 100 µM | MOLT-4 22 µM | HCC 2998 47.9 µM | UO-31 > 100 µM

[O-]/[N+](=N\c1ccccc1CO)c1ccccc1CO
inactive: RXF 393 > 100 µM | K562 > 100 µM | OVCAR-5 > 100 µM | NCI-H460 > 100 µM | SNB-19 > 100 µM | NCI-H23 > 100 µM | OVCAR-3 > 100 µM | SR > 100 µM | DU-145 > 100 µM | CCRF-CEM > 100 µM | HT-29 > 100 µM | SW-620 > 100 µM | OVCAR-4 > 100 µM | MCF7 > 100 µM | CAKI-1 > 100 µM | MOLT-4 > 100 µM | HCC 2998 > 100 µM | UO-31 > 100 µM

CCc1cccc(CC)c1Nc1nc(-c2ccccc2-c2ccccc2)cs1
inactive: RXF 393 > 100 µM | K562 51.5 µM | OVCAR-5 > 100 µM | NCI-H460 65.3 µM | SNB-19 > 100 µM | NCI-H23 93.8 µM | OVCAR-3 57.1 µM | SR 52.1 µM | DU-145 > 100 µM | CCRF-CEM > 100 µM | ACHN > 100 µM | SW-620 > 100 µM | OVCAR-4 > 100 µM | MCF7 66.2 µM | CAKI-1 > 100 µM | MOLT-4 75.2 µM | HCC 2998 > 100 µM | UO-31 64.4 µM

O=C(NCCNCCNC(=O)C(F)(F)F)C(F)(F)F
inactive: RXF 393 > 100 µM | K562 > 100 µM | OVCAR-5 > 100 µM | SNB-19 > 100 µM | NCI-H23 > 100 µM | OVCAR-3 > 100 µM | SR > 100 µM | DU-145 > 100 µM | CCRF-CEM > 100 µM | HT-29 > 100 µM | ACHN > 100 µM | SW-620 > 100 µM | OVCAR-4 > 100 µM | MCF7 > 100 µM | CAKI-1 > 100 µM | MOLT-4 > 100 µM | HCC 2998 > 100 µM | UO-31 > 100 µM

CC1=CC(C)(C)[C@H]2O[C@@]3(O)C[C@]4(C)[C@H]5C[C@@](C(C)C)(O[C@H]4c4ccoc4)O[C@H]4[C@]5(C3)O[C@@]1(O)[C@]24O
inactive: RXF 393 > 100 µM | K562 > 100 µM | OVCAR-5 > 100 µM | SNB-19 45.4 µM | NCI-H23 > 100 µM | OVCAR-3 > 100 µM | SR > 100 µM | DU-145 > 100 µM | CCRF-CEM > 100 µM | HT-29 > 100 µM | ACHN > 100 µM | SW-620 > 100 µM | OVCAR-4 54.2 µM | MCF7 > 100 µM | CAKI-1 > 100 µM | MOLT-4 > 100 µM | HCC 2998 > 100 µM | UO-31 > 100 µM

O=C1NC(=O)[C@@H](OCC2CCCCC2)[C@@H]2OCC3OC(C(O)C3O)C12 (stereo partly drawn)
inactive: RXF 393 > 100 µM | OVCAR-5 > 100 µM | NCI-H460 > 100 µM | SNB-19 > 100 µM | NCI-H23 > 100 µM | OVCAR-3 > 100 µM | SR > 100 µM | DU-145 > 100 µM | CCRF-CEM > 100 µM | HT-29 > 100 µM | ACHN > 100 µM | SW-620 > 100 µM | OVCAR-4 > 100 µM | MCF7 > 100 µM | CAKI-1 > 100 µM | MOLT-4 > 100 µM | HCC 2998 > 100 µM

CC1OC(OC2C(O)COC(OC3C(C)OC(OC4C(OC(=O)[C@]56CCC(C)(C)C[C@@H]5C5=CCC7[C@@]8(C)C[C@H](O)[C@H](OC9OC(CO)C(O)C(OC%10OC(CO)C(O)C(O)C%10O)C9O)[C@@](C)(CO)[C@@H]8CC[C@@]7(C)[C@]5(C)CC6)OCC(O)C4O)C(O)C3OC3OCC(O)(CO)C3O)C2O)C(O)C(O)C1O (stereo partly drawn)
inactive: RXF 393 7.67 µM | K562 22.7 µM | OVCAR-5 9.02 µM | NCI-H460 12.7 µM | SNB-19 8.89 µM | NCI-H23 5.87 µM | OVCAR-3 9.64 µM | SR 6.28 µM | DU-145 8.28 µM | CCRF-CEM 6.14 µM | ACHN 9.68 µM | SW-620 6.43 µM | OVCAR-4 7.94 µM | MCF7 12.4 µM | CAKI-1 3.98 µM | MOLT-4 9.77 µM | HCC 2998 8.09 µM | UO-31 3.56 µM

O=C1CCc2ccc(O)c(c2)Oc2ccc(cc2)C(Sc2ccccc2)CCO1 (stereo not drawn)
inactive: RXF 393 17.8 µM | K562 15.7 µM | OVCAR-5 17.1 µM | SNB-19 19.7 µM | NCI-H23 13.1 µM | OVCAR-3 10.9 µM | SR 13.1 µM | DU-145 17.8 µM | CCRF-CEM 10.8 µM | HT-29 15.9 µM | ACHN 15.1 µM | SW-620 17 µM | OVCAR-4 12.2 µM | MCF7 12.1 µM | CAKI-1 14.1 µM | MOLT-4 22.1 µM | HCC 2998 17.1 µM | UO-31 14.4 µM
